Experimental findings from patent publication US20250282794A1 (CURADEV PHARMA LTD, priority 2022, published 2025) are described below.

In the test the target is recombinant full length HPK-1 enzyme (Homo sapiens (Human), UniProt Q92918). The experiment in a line: HPK-1 biochemical enzyme assay (ADP-Glo kinase inhibition). The following applies: recombinant full length HPK-1 6.8 nM, 10 μM ATP, 12.5 μM MBP, 30 mins at 25° C. The gist of the method:
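ADP-Glo readout of ADP formed after a 30 min, 25° C. reaction of 6.8 nM full-length HPK-1 with swine myelin basic protein (12.5 μM) and ATP (10 μM) in Tris pH 7.4 buffer with MgCl2, DTT and BSA. Ten compound concentrations tested; percent inhibition set against vehicle (0%) and no-enzyme (100%) controls gave IC50.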

recombinant full length HPK-1 enzyme, sequence (Q92918 whole entry, species assumed): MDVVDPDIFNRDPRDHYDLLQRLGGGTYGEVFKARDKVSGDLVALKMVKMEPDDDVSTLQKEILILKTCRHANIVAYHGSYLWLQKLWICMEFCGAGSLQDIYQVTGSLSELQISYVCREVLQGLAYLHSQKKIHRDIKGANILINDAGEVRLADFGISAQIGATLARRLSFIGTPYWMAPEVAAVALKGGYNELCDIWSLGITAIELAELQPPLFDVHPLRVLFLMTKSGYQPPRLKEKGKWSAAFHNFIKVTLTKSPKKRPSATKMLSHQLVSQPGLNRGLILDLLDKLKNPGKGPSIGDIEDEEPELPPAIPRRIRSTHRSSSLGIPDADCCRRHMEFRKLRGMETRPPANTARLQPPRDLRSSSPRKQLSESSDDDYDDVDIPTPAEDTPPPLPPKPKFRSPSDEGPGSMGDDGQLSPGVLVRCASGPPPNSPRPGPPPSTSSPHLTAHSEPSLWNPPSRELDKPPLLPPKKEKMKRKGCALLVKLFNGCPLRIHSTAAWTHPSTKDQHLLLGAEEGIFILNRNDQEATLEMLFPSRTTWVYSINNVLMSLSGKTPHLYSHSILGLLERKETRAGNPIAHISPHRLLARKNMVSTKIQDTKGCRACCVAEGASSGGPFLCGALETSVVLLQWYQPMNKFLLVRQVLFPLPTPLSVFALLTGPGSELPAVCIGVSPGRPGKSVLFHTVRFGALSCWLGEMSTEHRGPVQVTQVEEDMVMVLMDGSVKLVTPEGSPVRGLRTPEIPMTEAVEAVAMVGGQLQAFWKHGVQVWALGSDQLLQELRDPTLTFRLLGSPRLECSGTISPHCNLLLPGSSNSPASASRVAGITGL

In the case of `Cc1c(Nc2cc[nH]c(=O)c2C(=O)Nc2ccc(N3CCN(C)CC3)c(Cl)c2)cnc2c1NCCO2` [Example 261, N-(3-chloro-4-(4-methylpiperazin-1-yl)phenyl)-4-((8-methyl-2,3-dihydro-1H-pyrido[2,3-b][1,4]oxazin-7-yl)amino)-2-oxo-1,2-dihydropyridine-3-carboxamide], the 50% inhibitory concentration (IC50) is at most 10 nM.
Regarding `Cc1c(Nc2cc[nH]c(=O)c2C(=O)Nc2ccc(N3CCN(S(C)(=O)=O)CC3)cc2)cnc2c1NCCO2` [Example 262, 4-((8-methyl-2,3-dihydro-1H-pyrido[2,3-b][1,4]oxazin-7-yl)amino)-N-(4-(4-(methylsulfonyl)piperazin-1-yl)phenyl)-2-oxo-1,2-dihydropyridine-3-carboxamide], the IC50 lay within 10 to 100 nM.
Consider `Cc1c(Nc2cc[nH]c(=O)c2C(=O)Nc2ccc(N3CCN(C)CC3)c(N)c2)cnc2c1NCCO2` [Example 263, N-(3-Amino-4-(4-methylpiperazin-1-yl)phenyl)-4-((8-methyl-2,3-dihydro-1H-pyrido[2,3-b][1,4]oxazin-7-yl)amino)-2-oxo-1,2-dihydropyridine-3-carboxamide], for which the IC50 is at most 10 nM.
On to `CCn1nccc1-c1ccc(NC(=O)c2c(Nc3cnc4c(c3C)NCCO4)cc[nH]c2=O)cc1` [Example 264, N-(4-(1-ethyl-1H-pyrazol-5-yl)phenyl)-4-((8-methyl-2,3-dihydro-1H-pyrido[2,3-b][1,4]oxazin-7-yl)amino)-2-oxo-1,2-dihydropyridine-3-carboxamide], for which the IC50 fell in the range of 10 to 100 nM.
Take `CCn1nc(C(F)(F)F)cc1-c1ccc(NC(=O)c2c(Nc3cnc4c(c3C)NCCO4)cc[nH]c2=O)cc1` [Example 265, N-(4-(1-ethyl-3-(trifluoromethyl)-1H-pyrazol-5-yl)phenyl)-4-((8-methyl-2,3-dihydro-1H-pyrido[2,3-b][1,4]oxazin-7-yl)amino)-2-oxo-1,2-dihydropyridine-3-carboxamide]: the IC50 lay within 10 to 100 nM.
For `Cc1c(Nc2cc[nH]c(=O)c2C(=O)Nc2ccc(N3CCN(C)C[C@@H]3C)cc2)cnc2c1NCCO2` [Example 266, (S)-N-(4-(2,4-dimethylpiperazin-1-yl)phenyl)-4-((8-methyl-2,3-dihydro-1H-pyrido[2,3-b][1,4]oxazin-7-yl)amino)-2-oxo-1,2-dihydropyridine-3-carboxamide], the IC50 was at most 10 nM.
As to `Cc1c(Nc2cc[nH]c(=O)c2C(=O)Nc2ccc(N3CCN(C)CC3=O)cc2)cnc2c1NCCO2` [Example 267, 4-((8-methyl-2,3-dihydro-1H-pyrido[2,3-b][1,4]oxazin-7-yl)amino)-N-(4-(4-methyl-2-oxopiperazin-1-yl)phenyl)-2-oxo-1,2-dihydropyridine-3-carboxamide], the concentration for half-maximal inhibition (IC50) is 10 to 100 nM.
With `Cc1c(Nc2cc[nH]c(=O)c2C(=O)Nc2ccc(N3CCNC(=O)C3)cc2)cnc2c1NCCO2` [Example 268, 4-((8-methyl-2,3-dihydro-1H-pyrido[2,3-b][1,4]oxazin-7-yl)amino)-2-oxo-N-(4-(3-oxopiperazin-1-yl)phenyl)-1,2-dihydropyridine-3-carboxamide], the IC50 is 10 to 100 nM.
Take `Cc1c(Nc2cc[nH]c(=O)c2C(=O)Nc2ccc3c(c2)OCC(=O)N3)cnc2c1NCCO2` [Example 269, 4-((8-methyl-2,3-dihydro-1H-pyrido[2,3-b][1,4]oxazin-7-yl)amino)-2-oxo-N-(3-oxo-3,4-dihydro-2H-benzo[b][1,4]oxazin-7-yl)-1,2-dihydropyridine-3-carboxamide]: the half-inhibitory concentration (IC50) was in the range of 10 to 100 nM.
As for `Cc1c(Nc2cc[nH]c(=O)c2C(=O)Nc2ccc(N3CCN(C)CC3)c(Br)c2)cnc2c1NCCO2` [Example 270, N-(3-bromo-4-(4-methylpiperazin-1-yl)phenyl)-4-((8-methyl-2,3-dihydro-1H-pyrido[2,3-b][1,4]oxazin-7-yl)amino)-2-oxo-1,2-dihydropyridine-3-carboxamide], the IC50 is at most 10 nM.
For the compound `Cc1c(Nc2cc[nH]c(=O)c2C(=O)Nc2ccc(-c3ccnn3C(C)C)cc2)cnc2c1NCCO2` [Example 271, N-(4-(1-isopropyl-1H-pyrazol-5-yl)phenyl)-4-((8-methyl-2,3-dihydro-1H-pyrido[2,3-b][1,4]oxazin-7-yl)amino)-2-oxo-1,2-dihydropyridine-3-carboxamide], the IC50 was in the range of 10 to 100 nM.
For the compound `Cc1c(Nc2cc[nH]c(=O)c2C(=O)Nc2ccc(N3CCN(C)C(=O)C3)cc2)cnc2c1NCCO2` [Example 272, 4-((8-methyl-2,3-dihydro-1H-pyrido[2,3-b][1,4]oxazin-7-yl)amino)-N-(4-(4-methyl-3-oxopiperazin-1-yl)phenyl)-2-oxo-1,2-dihydropyridine-3-carboxamide], the IC50 is 10 to 100 nM.
To `Cc1c(Nc2cc[nH]c(=O)c2C(=O)Nc2ccc3ncc(O)nc3c2)cnc2c1NCCO2` [Example 273, N-(3-hydroxyquinoxalin-6-yl)-4-((8-methyl-2,3-dihydro-1H-pyrido[2,3-b][1,4]oxazin-7-yl)amino)-2-oxo-1,2-dihydropyridine-3-carboxamide] belongs 100 to 1000 nM; to `Cc1c(Nc2cc[nH]c(=O)c2C(=O)Nc2ccc(N3CCC(N4CCN(C)CC4)CC3)cc2)cnc2c1NCCO2` [Example 274, 4-((8-methyl-2,3-dihydro-1H-pyrido[2,3-b][1,4]oxazin-7-yl)amino)-N-(4-(4-(4-methylpiperazin-1-yl)piperidin-1-yl)phenyl)-2-oxo-1,2-dihydropyridine-3-carboxamide], at most 10 nM; to `COCCN1CCC(c2ccc(NC(=O)c3c(Nc4cnc5c(c4C)NCCO5)cc[nH]c3=O)cc2F)CC1` [Example 276, N-(3-fluoro-4-(1-(2-methoxyethyl)piperidin-4-yl)phenyl)-4-((8-methyl-2,3-dihydro-1H-pyrido[2,3-b][1,4]oxazin-7-yl)amino)-2-oxo-1,2-dihydropyridine-3-carboxamide], at most 10 nM.
To `Cc1c(Nc2cc[nH]c(=O)c2C(=O)Nc2ccc(N3CCC(C)CC3)cc2)cnc2c1NCCO2` [Example 280, 4-((8-methyl-2,3-dihydro-1H-pyrido[2,3-b][1,4]oxazin-7-yl)amino)-N-(4-(4-methylpiperidin-1-yl)phenyl)-2-oxo-1,2-dihydropyridine-3-carboxamide] belongs 10 to 100 nM.
For the compound `CCCCC(CC)CNC(=O)c1ccc(NC(=O)c2c(Nc3cnc4c(c3C)NCCO4)cc[nH]c2=O)cc1` (stereo not shown) [Example 281, N-(4-((2-ethylhexyl)carbamoyl)phenyl)-4-((8-methyl-2,3-dihydro-1H-pyrido[2,3-b][1,4]oxazin-7-yl)amino)-2-oxo-1,2-dihydropyridine-3-carboxamide], the IC50 lay within 10 to 100 nM.
The result for `Cc1c(Nc2cc[nH]c(=O)c2C(=O)Nc2ccc(N3CCN(CC(C)(C)O)CC3)cc2)cnc2c1NCCO2` [Example 282, N-(4-(4-(2-hydroxy-2-methylpropyl)piperazin-1-yl)phenyl)-4-((8-methyl-2,3-dihydro-1H-pyrido[2,3-b][1,4]oxazin-7-yl)amino)-2-oxo-1,2-dihydropyridine-3-carboxamide] reads at most 10 nM; that for `Cc1c(Nc2cc[nH]c(=O)c2C(=O)Nc2ccc(N3CCN(C(=O)C4CCCC4)CC3)cc2)cnc2c1NCCO2` [Example 283, N-(4-(4-(cyclopentanecarbonyl)piperazin-1-yl)phenyl)-4-((8-methyl-2,3-dihydro-1H-pyrido[2,3-b][1,4]oxazin-7-yl)amino)-2-oxo-1,2-dihydropyridine-3-carboxamide], at most 10 nM; that for `COCC(=O)N1CCN(c2ccc(NC(=O)c3c(Nc4cnc5c(c4C)NCCO5)cc[nH]c3=O)cc2)CC1` [Example 284, N-(4-(4-(2-methoxyacetyl)piperazin-1-yl)phenyl)-4-((8-methyl-2,3-dihydro-1H-pyrido[2,3-b][1,4]oxazin-7-yl)amino)-2-oxo-1,2-dihydropyridine-3-carboxamide], at most 10 nM.
With `COCCC(=O)N1CCN(c2ccc(NC(=O)c3c(Nc4cnc5c(c4C)NCCO5)cc[nH]c3=O)cc2)CC1` [Example 285, N-(4-(4-(3-methoxypropanoyl)piperazin-1-yl)phenyl)-4-((8-methyl-2,3-dihydro-1H-pyrido[2,3-b][1,4]oxazin-7-yl)amino)-2-oxo-1,2-dihydropyridine-3-carboxamide], the IC50 is at most 10 nM.
On to `Cc1c(Nc2cc[nH]c(=O)c2C(=O)Nc2ccc(N3CCN(c4cccnc4)CC3)cc2)cnc2c1NCCO2` [Example 286, 4-((8-methyl-2,3-dihydro-1H-pyrido[2,3-b][1,4]oxazin-7-yl)amino)-2-oxo-N-(4-(4-(pyridin-3-yl)piperazin-1-yl)phenyl)-1,2-dihydropyridine-3-carboxamide], for which the IC50 was at most 10 nM.
As for `CNC(=O)N1CCN(c2ccc(NC(=O)c3c(Nc4cnc5c(c4C)NCCO5)cc[nH]c3=O)cc2)CC1` [Example 287, N-methyl-4-(4-(4-((8-methyl-2,3-dihydro-1H-pyrido[2,3-b][1,4]oxazin-7-yl)amino)-2-oxo-1,2-dihydropyridine-3-carboxamido)phenyl)piperazine-1-carboxamide], the half-inhibitory concentration (IC50) is 10 to 100 nM.
As for `Cc1c(Nc2cc[nH]c(=O)c2C(=O)Nc2ccc(N3CCN(c4ccncc4)CC3)cc2)cnc2c1NCCO2` [Example 288, 4-((8-methyl-2,3-dihydro-1H-pyrido[2,3-b][1,4]oxazin-7-yl)amino)-2-oxo-N-(4-(4-(pyridin-4-yl)piperazin-1-yl)phenyl)-1,2-dihydropyridine-3-carboxamide], the IC50 was at most 10 nM.
On to `COCCN(C)C(=O)N1CCN(c2ccc(NC(=O)c3c(Nc4cnc5c(c4C)NCCO5)cc[nH]c3=O)cc2)CC1` [Example 290, N-(2-methoxyethyl)-N-methyl-4-(4-(4-((8-methyl-2,3-dihydro-1H-pyrido[2,3-b][1,4]oxazin-7-yl)amino)-2-oxo-1,2-dihydropyridine-3-carboxamido)phenyl)piperazine-1-carboxamide], for which the IC50 is at most 10 nM.
